Experimental data published in US20240360178A1, “MACROCYCLIC IMMUNOMODULATORS” (Bristol-Myers Squibb Company, priority 2021, published 2024).
Positions of bridges follow the written chain, without caps; N, C: chain ends. Non-standard residues stand in square brackets, D forms with d. Residues, ends and D or L forms follow the SMILES beside them. ξ: configuration not given here. Phe(3-CF3) = N[C@@H](Cc1cccc(C(F)(F)F)c1)C(=O)O; Phe(4-COOH) = N[C@@H](Cc1ccc(C(=O)O)cc1)C(=O)O; Bip = N[C@@H](Cc1ccc(-c2ccccc2)cc1)C(=O)O; Phe(4-CN) = N#Cc1ccc(C[C@H](N)C(=O)O)cc1; NMeF = CN[C@@H](Cc1ccccc1)C(=O)O; hArg = N=C(N)NCCCC[C@H](N)C(=O)O; 3Pal = N[C@@H](Cc1cccnc1)C(=O)O; Cit = NC(=O)NCCC[C@H](N)C(=O)O; ξR = N=C(N)NCCCC(N)C(=O)O; NMeA = CN[C@@H](C)C(=O)O; Nle = CCCC[C@H](N)C(=O)O; Dab = NCC[C@H](N)C(=O)O; Dap = NC[C@H](N)C(=O)O; Aib = CC(C)(N)C(=O)O; ξP = O=C(O)C1CCCN1; Sar = CNCC(=O)O

Target: T1, human PD-1 (Jurkat-PD-1 cells) / PE-labeled human PD-L1-Ig (Homo sapiens, UniProt Q15116)
T1 construct: expressed in transfected cells; host or cells: Jurkat cell line over-expressing human PD-1
Experiment: Jurkat-PD-1 Cell Binding High-Content Screening Assay (CBA); Jurkat hPD1-PDL1 assay
Conditions: Jurkat cell line over-expressing human PD-1; PE-labeled PD-L1-Ig 20 nM final; compound incubated 2 hours at 37° C.; read-out: Jurkat HPD1-PDL1 IC50
In short: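 Binding of phycoerythrin-conjugated PD-L1-Ig (20 nM final) to PD-1-overexpressing Jurkat cells was read by high-content imaging. Cells in DMEM/10% FCS were exposed to compound for 2 hours at 37° C before labeled ligand was added.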

T1 sequence (Q15116 25-288): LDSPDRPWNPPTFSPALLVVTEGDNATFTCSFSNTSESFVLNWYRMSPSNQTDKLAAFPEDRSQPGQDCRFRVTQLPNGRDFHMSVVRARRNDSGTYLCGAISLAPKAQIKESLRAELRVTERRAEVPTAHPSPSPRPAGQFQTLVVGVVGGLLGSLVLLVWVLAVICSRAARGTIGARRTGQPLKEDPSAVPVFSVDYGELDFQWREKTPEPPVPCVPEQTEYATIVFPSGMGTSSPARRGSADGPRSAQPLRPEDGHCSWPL

Point of comparison: `CC(C)C[C@@H]1NC(=O)[C@H](Cc2c[nH]c3ccccc23)NC(=O)[C@H](CC(=O)O)NC(=O)[C@H](Cc2ccc(O)cc2)NC(=O)[C@H](Cc2ccccc2)NC(=O)CSC[C@@H](C(=O)N[C@@H](C)C(N)=O)NC(=O)[C@H]([C@@H](C)O)NC(=O)[C@H](C(C)C)NC(=O)[C@H](CC(C)C)NC(=O)[C@H](CCN)NC(=O)[C@H]2CCCN2C(=O)[C@H](C)N(C)C(=O)[C@H](C(C)C)NC(=O)[C@H](Cc2ccc(-c3ccccc3)cc2)NC1=O` [Example 1398] ({CH2CO}-FYDWL[Bip]V[NMeA][dP][Dab]LVTCA-NH2; thioether N-14), IC50 50 nM. Against it:
- CC(C)C[C@@H]1NC(=O)[C@H](CCN)NC(=O)[C@H](Cc2ccccc2)N(C)C(=O)[C@H](C)N(C)C(=O)[C@H](CCCNC(=N)N)NC(=O)[C@H](Cc2ccc(-c3ccccc3)cc2)NC(=O)[C@H](C(C)C)NC(=O)[C@H](Cc2c[nH]c3ccccc23)NC(=O)[C@H](CC(=O)O)NC(=O)[C@H](Cc2ccc(O)cc2)NC(=O)[C@H](Cc2ccccc2)NC(=O)CSC[C@@H](C(=O)N[C@@H](C)C(N)=O)NC(=O)[C@H]([C@@H](C)O)NC(=O)[C@H](C(C)C)NC1=O [Example 1322] ({CH2CO}-FYDWV[Bip]R[NMeA][NMeF][Dab]LVTCA-NH2; thioether N-14) — 2.4-fold higher, 120 nM
- CC(C)C[C@@H]1NC(=O)[C@H](Cc2c[nH]c3ccccc23)NC(=O)[C@H](CC(=O)O)NC(=O)[C@H](Cc2ccc(O)cc2)NC(=O)[C@H](Cc2ccc(C#N)cc2)NC(=O)CSC[C@@H](C(=O)NCC(N)=O)NC(=O)[C@H](CO)NC(=O)[C@H](C(C)C)NC(=O)[C@H](CC(C)C)NC(=O)[C@H](CC(N)=O)NC(=O)CN(C)C(=O)[C@H](C)N(C)C(=O)[C@H](C(C)C)NC(=O)[C@H](Cc2ccc(-c3ccccc3)cc2)NC1=O [Example 1128] ({CH2CO}-[Phe(4-CN)]YDWL[Bip]V[NMeA][Sar]NLVSCG-NH2; thioether N-14) — 9.8-fold higher, 490 nM
- CC(C)C[C@@H]1NC(=O)[C@H](CCCCN)NC(=O)[C@H](Cc2ccccc2)N(C)C(=O)[C@H](C)N(C)C(=O)[C@H](CCCNC(=N)N)NC(=O)[C@H](Cc2ccc(-c3ccccc3)cc2)NC(=O)[C@H](C(C)C)NC(=O)[C@H](Cc2c[nH]c3ccccc23)NC(=O)[C@H](CC(=O)O)NC(=O)[C@H](Cc2ccc(O)cc2)NC(=O)[C@H](CC(N)=O)NC(=O)CSC[C@@H](C(=O)N[C@@H](CO)C(N)=O)NC(=O)[C@H]([C@@H](C)O)NC(=O)[C@H](C(C)C)NC1=O [Example 1354] ({CH2CO}-NYDWV[Bip]R[NMeA][NMeF]KLVTCS-NH2; thioether N-14) — 4.2-fold higher, 210 nM
- COc1ccc(C[C@@H]2NC(=O)[C@H](Cc3ccccc3)NC(=O)CSC[C@@H](C(=O)N[C@@H](C)C(N)=O)NC(=O)[C@H](CO)NC(=O)[C@H](C(C)C)NC(=O)[C@H](CC(C)C)NC(=O)[C@H](CC(N)=O)NC(=O)CN(C)C(=O)[C@H](C)N(C)C(=O)[C@H](C(C)C)NC(=O)[C@H](Cc3ccc(-c4ccccc4)cc3)NC(=O)[C@H](CC(C)C)NC(=O)[C@H](Cc3c[nH]c4ccccc34)NC(=O)[C@H](CC(=O)O)NC2=O)cc1 [Example 1139] ({CH2CO}-FY(Me)DWL[Bip]V[NMeA][Sar]NLVSCA-NH2; thioether N-14) — 12-fold higher, 590 nM
- CC(C)C[C@@H]1NC(=O)CSC[C@@H](C(=O)N[C@@H](C)C(N)=O)NC(=O)[C@H](CO)NC(=O)[C@H](C(C)C)NC(=O)[C@H](CC(C)C)NC(=O)[C@H](CCCNC(=N)N)NC(=O)[C@H](Cc2ccccc2)N(C)C(=O)[C@H](C)N(C)C(=O)[C@H](CCCNC(=N)N)NC(=O)[C@H](Cc2ccc(-c3ccccc3)cc2)NC(=O)[C@H](C(C)C)NC(=O)[C@H](Cc2c[nH]c3ccccc23)NC(=O)[C@H](CC(=O)O)NC(=O)[C@H](Cc2ccc(O)cc2)NC1=O [Example 1308] ({CH2CO}-LYDWV[Bip]R[NMeA][NMeF]RLVSCA-NH2; thioether N-14) — 8.2-fold higher, 410 nM
- CCCC[C@@H]1NC(=O)[C@H](CCCCN)NC(=O)[C@H](Cc2ccccc2)N(C)C(=O)[C@H](CC(=O)O)NC(=O)[C@H](CCCNC(=N)N)NC(=O)[C@H](Cc2ccc(-c3ccccc3)cc2)NC(=O)[C@H](C(C)C)NC(=O)[C@H](Cc2c[nH]c3ccccc23)NC(=O)[C@H](CC(=O)O)NC(=O)[C@H](Cc2ccc(O)cc2)NC(=O)[C@H](Cc2ccccc2)NC(=O)CSC[C@@H](C(=O)NCC(N)=O)NC(=O)[C@H](CCCNC(=N)N)NC(=O)[C@H](C(C)C)NC1=O [Example 1192] ({CH2CO}-FYDWV[Bip]RD[NMeF]K[Nle]VRCG-NH2; thioether N-14) — 18-fold higher, 920 nM
- CC(C)C[C@@H]1NC(=O)[C@H](CCCNC(=N)N)NC(=O)C2CCCN2C(=O)[C@H](C)N(C)C(=O)[C@H](CCCNC(=N)N)NC(=O)[C@H](Cc2ccc(-c3ccccc3)cc2)NC(=O)[C@H](C(C)C)NC(=O)[C@H](Cc2c[nH]c3ccccc23)NC(=O)[C@H](CC(=O)O)NC(=O)[C@H](Cc2ccc(O)cc2)NC(=O)[C@H](Cc2ccccc2)NC(=O)CSC[C@@H](C(=O)NCC(N)=O)NC(=O)[C@H](CO)NC(=O)[C@H](C(C)C)NC1=O (stereo partly shown) [Example 1282] ({CH2CO}-FYDWV[Bip]R[NMeA][ξP]RLVSCG-NH2; thioether N-14) — 5.8-fold higher, 290 nM
- CC(C)C[C@@H]1NC(=O)[C@H](CCCNC(=N)N)NC(=O)[C@H](Cc2ccccc2)N(C)C(=O)[C@H](C)N(C)C(=O)[C@H](C(C)C)NC(=O)[C@H](Cc2ccc(-c3ccccc3)cc2)NC(=O)[C@H](C(C)C)NC(=O)[C@H](Cc2c[nH]c3ccccc23)NC(=O)[C@H](CC(=O)O)NC(=O)[C@H](Cc2ccc(O)cc2)NC(=O)[C@H](Cc2ccccc2)NC(=O)CSC[C@@H](C(=O)N[C@@H](C)C(N)=O)NC(=O)[C@H](CO)NC(=O)[C@H](C(C)C)NC1=O [Example 1115] ({CH2CO}-FYDWV[Bip]V[NMeA][NMeF]RLVSCA-NH2; thioether N-14) — 8-fold higher, 400 nM
- CC(C)C[C@@H]1NC(=O)[C@H](CCN)NC(=O)[C@H](Cc2ccccc2)N(C)C(=O)[C@H](C)N(C)C(=O)[C@H](CCCNC(N)=O)NC(=O)[C@H](Cc2ccc(-c3ccccc3)cc2)NC(=O)[C@H](C(C)C)NC(=O)[C@H](Cc2cccc(C(F)(F)F)c2)NC(=O)[C@H](CC(=O)O)NC(=O)[C@H](Cc2ccc(O)cc2)NC(=O)[C@H](CC(N)=O)NC(=O)CSC[C@@H](C(=O)N[C@@H](C)C(N)=O)NC(=O)[C@H]([C@@H](C)O)NC(=O)[C@H](C(C)C)NC1=O [Example 1376] ({CH2CO}-NYD[Phe(3-CF3)]V[Bip][Cit][NMeA][NMeF][Dab]LVTCA-NH2; thioether N-14) — within 1.5-fold, 70 nM
- CC(C)C[C@@H]1NC(=O)[C@H](Cc2c[nH]c3ccccc23)NC(=O)[C@H](CC(=O)O)NC(=O)[C@H](Cc2ccc(O)cc2)NC(=O)[C@H](Cc2ccccc2)NC(=O)CSC[C@@H](C(=O)NCC(N)=O)NC(=O)[C@H](CO)NC(=O)[C@H](C(C)C)NC(=O)[C@H](CC(C)C)NC(=O)[C@H](CCN)NC(=O)[C@H]2CCCN2C(=O)[C@H](CN)NC(=O)[C@H](C(C)C)NC(=O)[C@H](Cc2ccc(-c3ccccc3)cc2)NC1=O [Example 1410] ({CH2CO}-FYDWL[Bip]V[Dap][dP][Dab]LVSCG-NH2; thioether N-14) — 2.8-fold higher, 140 nM
- CC(C)C[C@@H]1NC(=O)[C@H](C)NC(=O)[C@H]2CCCN2C(=O)[C@H](C)N(C)C(=O)[C@H](CCC(=O)O)NC(=O)[C@H](Cc2ccc(-c3ccccc3)cc2)NC(=O)[C@H](CC(C)C)NC(=O)[C@H](Cc2c[nH]c3ccccc23)NC(=O)[C@H](CC(=O)O)NC(=O)[C@H](Cc2ccc(C(=O)O)cc2)NC(=O)[C@H](Cc2cccnc2)NC(=O)CSC[C@@H](C(=O)N[C@@H](C)C(N)=O)NC(=O)[C@H](CO)NC(=O)[C@H](C(C)C)NC1=O [Example 1085] ({CH2CO}-[3Pal][Phe(4-COOH)]DWL[Bip]E[NMeA][dP]ALVSCA-NH2; thioether N-14) — 4.8-fold higher, 240 nM
- CC(C)C[C@@H]1NC(=O)C(CCCNC(=N)N)NC(=O)[C@H](Cc2ccccc2)N(C)C(=O)[C@H](C)N(C)C(=O)[C@H](CCCNC(=N)N)NC(=O)[C@H](Cc2ccc(-c3ccccc3)cc2)NC(=O)[C@H](C(C)C)NC(=O)[C@H](Cc2c[nH]c3ccccc23)NC(=O)[C@H](CC(=O)O)NC(=O)[C@H](Cc2ccc(O)cc2)NC(=O)[C@H](Cc2ccccc2)NC(=O)CSC[C@@H](C(=O)NCC(N)=O)NC(=O)[C@H](CCC(=O)O)NC(=O)[C@H](C(C)C)NC1=O (stereo partly shown) [Example 1219] ({CH2CO}-FYDWV[Bip]R[NMeA][NMeF][ξR]LVECG-NH2; thioether N-14) — 12-fold higher, 610 nM
- CC(C)C[C@@H]1NC(=O)[C@H](CCCCNC(=N)N)NC(=O)[C@H](Cc2ccccc2)N(C)C(=O)[C@H](C)N(C)C(=O)[C@H](CCCNC(=N)N)NC(=O)[C@H](Cc2ccc(-c3ccccc3)cc2)NC(=O)[C@H](C(C)C)NC(=O)[C@H](Cc2c[nH]c3ccccc23)NC(=O)[C@H](CC(=O)O)NC(=O)[C@H](Cc2ccc(O)cc2)NC(=O)[C@H](Cc2ccccc2)NC(=O)CSC[C@@H](C(=O)NCC(N)=O)NC(=O)[C@H](CO)NC(=O)[C@H](C(C)C)NC1=O [Example 1279] ({CH2CO}-FYDWV[Bip]R[NMeA][NMeF][hArg]LVSCG-NH2; thioether N-14) — 6.4-fold higher, 320 nM
- CC(C)C[C@@H]1NC(=O)[C@H](Cc2c[nH]c3ccccc23)NC(=O)[C@H](CC(=O)O)NC(=O)[C@H](Cc2ccc(O)cc2)NC(=O)[C@H](Cc2ccccc2)NC(=O)CSC[C@@H](C(=O)N[C@@H](C)C(N)=O)NC(=O)[C@H](CCC(N)=O)NC(=O)[C@H](C(C)C)NC(=O)[C@H](CC(C)C)NC(=O)[C@H](CC(N)=O)NC(=O)CN(C)C(=O)[C@H](C)N(C)C(=O)[C@H](C(C)C)NC(=O)[C@H](Cc2ccc(-c3ccccc3)cc2)NC1=O [Example 1136] ({CH2CO}-FYDWL[Bip]V[NMeA][Sar]NLVQCA-NH2; thioether N-14) — 11-fold higher, 560 nM
- CC(C)C[C@@H]1NC(=O)[C@H](CCCNC(=N)N)NC(=O)[C@H](Cc2ccccc2)N(C)C(=O)[C@H](C)N(C)C(=O)[C@H](CCCNC(=N)N)NC(=O)[C@H](Cc2ccc(-c3ccccc3)cc2)NC(=O)[C@H](C(C)C)NC(=O)[C@H](Cc2c[nH]c3ccccc23)NC(=O)[C@H](CC(=O)O)NC(=O)[C@H](Cc2ccc(O)cc2)NC(=O)[C@H](Cc2ccccc2)NC(=O)CSC[C@@H](C(=O)NC(C)(C)C(N)=O)NC(=O)[C@H](CO)NC(=O)[C@H](C(C)C)NC1=O [Example 1328] ({CH2CO}-FYDWV[Bip]R[NMeA][NMeF]RLVSC[Aib]-NH2; thioether N-14) — 9.6-fold higher, 480 nM
